A short description of data set [1]: Stability in human K3-EDTA plasma under different test conditions. In kind it is in vitro ADME. How it is done:
Likewise, a wide range of long-term stability tests reflecting the sort of real-world storage issues that can occur in hospital-based clinical studies (e.g., short-term storage at -20°C before transfer to -80°C, availability of -60°C but not -80°C), was evaluated to ensure plasma samples are analyzed before degradation can occur. Therefore, the following plasma stability tests were performed: room temperature, freeze thaw (one cycle consisted of 2 hours at room temperature followed by freezing for at least 12 hours at -80°C ± 10°C) and long-term (at -20°C ± 5°C, -60°C ± 10°C and -80°C ± 10°C). For each stability test, two concentrations (LQC and HQC) and six replicates per level were analyzed. For acceptance criteria, the precision (%CV) was ≤15% and the bias when compared with the nominal concentration was ±15%. […]

The format of data set [2] is in vitro ADME. The conditions noted are these: human, 120 min, 10 ng/mL. Here is the method: To ensure correct sample collection during the clinical trial procedures, whole-blood (using K3-EDTA as anticoagulant) stability was studied by spiking the blood (lurbinectedin at 20 ng/mL and M4 and M6 at 10 ng/mL). Aliquots of the whole blood were then centrifuged at 4°C for 0, 30, 60, 90 and 120 minutes post equilibration (15 minutes at 37°C) to produce plasma, which was then frozen prior to analysis. This was performed at room temperature (and in an ice bath for lurbinectedin). The derived plasma samples were analyzed in triplicate, and the criterion for acceptance was defined as having a response within ±15% of the zero-minute sample.

The nature of data set [3]: Stability of stock and working solutions at -20°C. The conditions noted are these: 1 mg/mL in DMSO, -20°C ±5°C. In kind it is physicochemical. How it is done:
The stability of stock and working solutions, as well the stability of IS stock solution, following storage at -20°C ±5°C were investigated by concordance verification by comparing the stored solution against a freshly prepared one.

Details of data set [4]: method as in PMID 35042701. Particulars: patients, radio-labeled lurbinectedin mass balance study; cited from earlier work.
Details of data set [5]: method as in PMID 35042701. The conditions noted are these: NHPs; cited from earlier work.
Data set [6] in a line: Chemical stability of M4 reference standard on isolation. The conditions noted are these: column chromatography on silica gel or reversed-phase chromatography. In kind it is physicochemical. How it is done: The chemical synthesis of the reference standard for M4 was not feasible. […] Therefore, M4 and M4-d4 solutions were biosynthetically obtained following the incubation of lurbinectedin and PM040038, respectively, in liver microsomes according to a three-step method described elsewhere.

The mark [7] stands for this setting: 5 freeze-thaw cycles, nom. conc. 1.5 ng/mL.
Setting [8] is: 5 freeze-thaw cycles, nom. conc. 16 ng/mL.
[9] abbreviates: -80°C ±10°C, 237 days, nom. conc. 1.5 ng/mL.
Setting [10] is: -80°C ±10°C, 237 days, nom. conc. 16 ng/mL.
The mark [11] stands for this setting: Ambient, 21.8 hours, nom. conc. 1.5 ng/mL.
[12] abbreviates: Ambient, 21.8 hours, nom. conc. 16 ng/mL.
The mark [13] stands for this setting: -80°C ±10°C, 197 days, nom. conc. 1.5 ng/mL.
The mark [14] stands for this setting: -80°C ±10°C, 197 days, nom. conc. 16 ng/mL.
[15] abbreviates: Ambient, 6 hours, nom. conc. 1.5 ng/mL.
Where [16] appears, read: Ambient, 6 hours, nom. conc. 16 ng/mL.

SMILES strings stand for the structures. Read-outs that look alike come from different tables or passages of the source.

For `COc1ccc2[nH]c3c(c2c1)CCN[C@]31CS[C@@H]2c3c(OC(C)=O)c(C)c4c(c3[C@H](COC1=O)N1[C@@H]2[C@@H]2N[C@@H](Cc3cc(C)c(OC)c(O)c32)[C@@H]1O)OCO4` [M6, N-desmethyl-lurbinectedin], the Bias in data set [1] (setting [7]) was determined as 13%; in data set [1] (setting [8]), 14%; in data set [1] (setting [9]), 13%; in data set [1] (setting [10]) it was 15%; in data set [1] (setting [11]), 5%; in data set [1] (setting [12]), 5%. For the same compound, the Measured conc. in data set [1] (setting [7]) worked out at 1.69 ng/mL; in data set [1] (setting [8]), 18.2 ng/mL; in data set [1] (setting [9]), 1.70 ng/mL; in data set [1] (setting [10]) it was 18.4 ng/mL; in data set [1] (setting [11]), 1.58 ng/mL; in data set [1] (setting [12]), 16.8 ng/mL. In addition, in data set [2], the “difference in concentration from time zero to 120 minutes” value is -8%. In addition, the “stability of stock solution in DMSO” value in data set [3] is not below 28 days. Further, the “circulating metabolite in plasma, % compared with parent compound” value in data set [4] is 10.4%; in data set [5], 0.4%.

On to `COc1ccc2[nH]c3c(c2c1)CCN[C@]31CS[C@@H]2c3c(OC(C)=O)c(C)c(O)c(O)c3[C@H](COC1=O)N1[C@@H]2[C@H]2c3c(cc(C)c(OC)c3O)C[C@@H]([C@@H]1O)N2C` [M4, 1′,3′-dihydroxy-lurbinectedin], for which the Bias is 5% in data set [1] (setting [7]); -3% in data set [1] (setting [8]); 3% in data set [1] (setting [13]); -1% in data set [1] (setting [14]); -7% in data set [1] (setting [15]); -14% in data set [1] (setting [16]). The Measured conc. in data set [1] (setting [7]) is reported as 1.58 ng/mL; in data set [1] (setting [8]), 15.6 ng/mL; in data set [1] (setting [13]), 1.54 ng/mL; in data set [1] (setting [14]) it was 15.8 ng/mL; in data set [1] (setting [15]), 1.40 ng/mL; in data set [1] (setting [16]), 13.7 ng/mL. The “difference in concentration from time zero to 120 minutes” value in data set [2] is reported as -3%. The “stability on isolation by conventional methods” value in data set [6] is “too unstable to be isolated”. Also, the “circulating metabolite in plasma, % compared with parent compound” value in data set [4] is 14.3%; in data set [5] it was 0.9%.

For `[2H]C1([2H])N[C@]2(CS[C@@H]3c4c(OC(C)=O)c(C)c5c(c4[C@H](COC2=O)N2[C@@H]3[C@H]3c4c(cc(C)c(OC)c4O)C[C@@H]([C@@H]2O)N3C)OCO5)c2[nH]c3ccc(OC)cc3c2C1([2H])[2H]` [PM040038], in data set [3], the “stability of stock solution in DMSO” value was not below 36 days.

For `[2H]C1([2H])N[C@]2(CS[C@@H]3c4c(OC(C)=O)c(C)c5c(c4[C@H](COC2=O)N2[C@@H]3[C@@H]3N[C@@H](Cc4cc(C)c(OC)c(O)c43)[C@@H]2O)OCO5)c2[nH]c3ccc(OC)cc3c2C1([2H])[2H]` [PM190539, N-Desmethyl-lurbinectedin-d4], the “stability of stock solution in DMSO” value in data set [3] is not below 28 days.

The record behind these values is publication PMC10062662, “Quantitative determination of lurbinectedin, its unbound fraction and its metabolites in human plasma utilizing ultra-performance LC–MS/MS” (PLOS ONE, 2023).
